Laboratory results published in article PMC5225157 (Biochemistry, 2016).
* marks the point of attachment. Dansyl = CN(C)c1cccc2c(S(=O)(=O)*)cccc12

What was measured:
[1] = molecular target: T1, human CP4H1 (Homo sapiens, UniProt P13674); test: Inhibition of human CP4H1 activity by alkene isosteres; assay type: biochemical; settings: for inhibition of catalysis by human CP4H: dansyl isostere 100 µM, dansylGPPGOEt 0.50 mM, pH 7.8, 30 °C, mean (± SD) of three independent experiments; for inhibition of catalysis by human CP4H / relative inhibitory potency, cis versus trans Cbz isosteres: α-ketoglutarate 1.00 mM; for relative inhibitory potency, cis versus trans Cbz isosteres: Cbz isostere 1.00 mM, CbzGPPGOEt 1.00 mM as substrate, pH 7.8, three independent experiments
[2] = tested on: C. reinhardtii P4H-1 (CrP4H-1); test: UPLC assay of dansyl peptides as substrates; assay type: biochemical, Chlamydomonas reinhardtii; settings: for hydroxylation of dansyl isosteres by CrP4H-1: UPLC, data not shown
[3] = tested on: C. reinhardtii P4H-1 (CrP4H-1); settings: isostere 100 µM, dansylGPPGOEt 0.50 mM, α-ketoglutarate 1.00 mM, NHis6-CrP4H-1 1.2 µM, 30 °C, 1 h, UPLC; three independent experiments
[4] = tested on: CP4H; settings: a CP4H; cited from earlier work
[5] = molecular target: T1, human CP4H1; test: UPLC assay of model peptides and isosteres as substrates; assay type: biochemical

T1 sequence (P13674 18-534): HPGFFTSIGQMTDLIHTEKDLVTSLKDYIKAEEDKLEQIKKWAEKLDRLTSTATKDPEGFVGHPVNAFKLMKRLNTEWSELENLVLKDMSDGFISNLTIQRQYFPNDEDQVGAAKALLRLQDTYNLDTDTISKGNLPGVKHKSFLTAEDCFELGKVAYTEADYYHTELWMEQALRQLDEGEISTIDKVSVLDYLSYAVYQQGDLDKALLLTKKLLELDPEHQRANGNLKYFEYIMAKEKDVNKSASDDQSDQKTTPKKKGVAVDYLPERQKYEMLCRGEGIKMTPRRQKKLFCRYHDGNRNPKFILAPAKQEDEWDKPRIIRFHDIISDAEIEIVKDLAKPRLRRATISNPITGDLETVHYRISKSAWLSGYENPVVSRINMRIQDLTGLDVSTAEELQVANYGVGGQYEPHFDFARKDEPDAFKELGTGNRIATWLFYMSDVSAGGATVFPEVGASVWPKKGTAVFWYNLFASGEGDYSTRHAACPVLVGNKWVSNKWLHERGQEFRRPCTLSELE
T1 sequence (P07237 18-508 partner): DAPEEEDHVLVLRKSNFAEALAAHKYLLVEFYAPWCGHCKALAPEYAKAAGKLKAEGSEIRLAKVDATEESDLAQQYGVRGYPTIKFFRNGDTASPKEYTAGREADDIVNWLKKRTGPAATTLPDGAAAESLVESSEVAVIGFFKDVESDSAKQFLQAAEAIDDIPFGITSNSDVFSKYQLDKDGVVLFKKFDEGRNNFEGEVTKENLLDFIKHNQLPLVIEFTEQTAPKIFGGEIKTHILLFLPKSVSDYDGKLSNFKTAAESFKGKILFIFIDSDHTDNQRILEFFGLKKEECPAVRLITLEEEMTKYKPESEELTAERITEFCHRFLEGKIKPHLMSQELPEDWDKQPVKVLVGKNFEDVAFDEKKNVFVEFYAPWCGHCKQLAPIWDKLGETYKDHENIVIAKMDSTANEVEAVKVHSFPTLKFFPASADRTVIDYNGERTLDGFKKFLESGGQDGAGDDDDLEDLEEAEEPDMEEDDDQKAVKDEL

Compound: CCOC(=O)CNC(=O)[C@@H]1CCC/C1=C\[C@@H]1CCCN1C(=O)CNS(=O)(=O)c1cccc2c(N(C)C)cccc12 [Compound 3, dansylGPtransPGOEt]
- IC50 [1]: 410 ± 30 µM
- inhibition of catalysis by human CP4H [1]: inhibitors of catalysis by human CP4H
- hydroxylation of dansyl isosteres by CrP4H-1 [2]: did not observe hydroxylation
- inhibition of CrP4H-1 [3]: served as inhibitors of CrP4H-1

Compound: CCOC(=O)CNC(=O)[C@@H]1CCC/C1=C/[C@@H]1CCCN1C(=O)CNS(=O)(=O)c1cccc2c(N(C)C)cccc12 [Compound 5, dansylGPcisPGOEt]
- IC50 [1]: 75 ± 6 µM
- Ki [1]: 56 ± 13 µM
- inhibition of catalysis by human CP4H [1]: inhibitors of catalysis by human CP4H
- hydroxylation of dansyl isosteres by CrP4H-1 [2]: did not observe hydroxylation
- inhibition of CrP4H-1 [3]: served as inhibitors of CrP4H-1

Compound: (ProProGly)10
- mode of substrate inhibition versus α-ketoglutarate [4]: competitive with the cosubstrate α-ketoglutarate
- substrate inhibition during turnover of longer collagen mimetic peptide [4]: Substrate inhibition had been observed

Compound: CbzGPcisPGOEt [Compound 6]
- relative inhibitory potency, cis versus trans Cbz isosteres [1]: the cis isostere inhibits with greater potency than does the trans isostere

Compound: CbzGPtransPGOEt [Compound 4]
- relative inhibitory potency, cis versus trans Cbz isosteres [1]: the cis isostere inhibits with greater potency than does the trans isostere

Compound: dansylGlyProProGlyOEt (Dansyl-GPPG-OEt; SMILES CCOC(=O)CNC(=O)[C@@H]1CCCN1C(=O)[C@@H]1CCCN1C(=O)CNS(=O)(=O)c1cccc2c(N(C)C)cccc12) [Compound 1]
- Ki ([5]; read-out: Ki (dissociation constant for substrate binding in an inhibitory manner), substrate-inhibition fit (R^2 = 0.98), dansylGPPGOEt 58–1860 µM, α-ketoglutarate 1.00 mM, CP4H1 100 nM, pH 7.8, 30 °C, 15 min, UPLC A289, triplicate): 300 ± 100 µM

Compound: dansylGlyProProGlyOEt [Compound 1]
- kinetic pattern of turnover ([5]; dansylGPPGOEt 58–1860 µM, α-ketoglutarate 1.00 mM, pH 7.8, 30 °C): substrate inhibition
- substrate inhibition at saturating α-ketoglutarate ([5]; saturating concentrations of α-ketoglutarate, human CP4H1): observed even at saturating concentrations of α-ketoglutarate
- kinetic pattern of turnover (CrP4H-1) ([2]; dansylGPPGOEt 212–2120 µM, α-ketoglutarate 1.00 mM): substrate inhibition phenomenon similar to that observed for human CP4H1
